Measured values from article PMC8471537, “Novel Coumarin-Thiadiazole Hybrids and Their Cu(II) and Zn(II) Complexes as Potential Antimicrobial Agents and Acetylcholinesterase Inhibitors” (International Journal of Molecular Sciences, 2021).

Each molecule was assayed against Acetylcholinesterase (AChE; E.C. 3.1.1.7) from Electrophorus electricus (Electrophorus electricus, UniProt O42275) (assay: Ellman assay, absorbance at […] nm).
Acetylcholinesterase (AChE; E.C. 3.1.1.7) from Electrophorus electricus, sequence (O42275 24-633): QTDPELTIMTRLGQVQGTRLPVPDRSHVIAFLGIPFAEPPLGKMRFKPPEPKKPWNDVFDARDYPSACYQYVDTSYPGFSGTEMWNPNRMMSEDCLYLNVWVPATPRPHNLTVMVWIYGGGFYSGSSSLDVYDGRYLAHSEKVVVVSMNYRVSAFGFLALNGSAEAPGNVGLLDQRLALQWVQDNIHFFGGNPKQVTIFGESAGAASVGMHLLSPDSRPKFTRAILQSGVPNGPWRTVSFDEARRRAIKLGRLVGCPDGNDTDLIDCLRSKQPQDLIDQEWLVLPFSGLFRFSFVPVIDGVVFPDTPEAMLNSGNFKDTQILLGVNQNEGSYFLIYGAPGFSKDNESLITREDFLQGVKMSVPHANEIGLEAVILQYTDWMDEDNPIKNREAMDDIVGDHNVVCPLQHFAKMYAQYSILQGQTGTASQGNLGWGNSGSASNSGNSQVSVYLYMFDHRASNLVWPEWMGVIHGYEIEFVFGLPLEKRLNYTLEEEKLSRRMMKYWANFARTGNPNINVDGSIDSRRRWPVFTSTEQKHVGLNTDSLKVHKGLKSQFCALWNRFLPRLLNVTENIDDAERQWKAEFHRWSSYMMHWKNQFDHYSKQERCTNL
Assay type: biochemical
In the case of `Cc1cc(=O)oc2c(-c3nnc(N)s3)c(O)ccc12` [compound 2, 2], the IC50 is reported as 0.218 ± 0.0084 µM.
For `CNc1nnc(-c2c(O)ccc3c(C)cc(=O)oc23)s1` [compound 3, 3], the IC50 was 0.211 ± 0.0123 µM.
In the case of `CC(=O)Nc1nnc(-c2c(O)ccc3c(C)cc(=O)oc23)s1` [compound 4, 4], the IC50 is reported as 0.181 ± 0.0123 µM.
`Cc1cc(=O)oc2c(-c3nnc(Nc4ccccc4)s3)c(O)ccc12` [compound 5, 5] showed an IC50 of 0.299 ± 0.0194 µM.
